# Measured values published in PMC10835732, “Pharmacokinetics of Hydroxytyrosol and Its Sulfate and Glucuronide Metabolites after the Oral Administration of Table Olives to Sprague-Dawley Rats” (Journal of Agricultural and Food Chemistry, 2024).
# Read-outs that look alike come from different tables or passages of the source. Marks after values point to notes of the source that are not given here.
# Columns and labels:
# [1] = Plasma pharmacokinetics (noncompartmental analysis) after single oral administration of Arbequina table olives; type: in vivo, Sprague-Dawley rats; conditions: for AUC0–∞ / Cmax/D / AUC0–∞/D / AUCt/D / Cl/F·fm (apparent clearance of metabolite) / MRT0–∞ / Vdarea/F·fm (apparent volume of distribution of metabolite, terminal phase) / Vss/F·fm (apparent steady-state volume of distribution of metabolite) / t1/2λz (apparent elimination half-life) / λz (apparent elimination rate constant) / AUCt / Cmax: geometric mean (95% CI); for Cmax/D: D = dose of hydroxytyrosol in nmol; for AUC0–∞/D / AUCt/D: D in nmol; for Tmax: median (min, max); for AUCt: time zero up to 8 h; for Cmax / percentage of the AUC of each compound divided by the AUC of the sum of all of them: plasma; for Cmax: read-out: Cmax; for half-life (t1/2λz) / mean residence time (MRT0–∞): oral table olives; for percentage of the AUC of each compound divided by the AUC of the sum of all of them: both doses (similar ratios between doses)
# Description: The experiments were performed using Sprague–Dawley rats (n = 13) randomly divided into two groups, the 30 olives group (n = 6) that received the dose of 3.85 g/kg and the 60 olives group (n = 7), which was given the dose of 7.70 g/kg. The freshly prepared homogeneous suspensions were given to overnight fasted rats by oral gavage (18-gauge × 76 mm, ref FFSS-186-76, Instech Laboratories, Inc., Plymouth Meeting, PA). The volume of administration was 10 mL/kg. After the single administration of Arbequina table olives, blood was obtained at 30, 60, 90, 120, 240, 360, and 480 min from each animal. Samples were withdrawn from the lateral saphenous vein and placed into Microvette CB 300 K2 EDTA-K2 (Sarstedt, Granollers, Spain) coated tubes.[31] At each time point, 0.40 mL of blood was collected, meaning that a maximum of 2.4 mL was obtained from each animal. […] Blood corresponding to 480 min was taken by a cardiac puncture with the animal under terminal anesthesia. Plasma was immediately obtained by centrifugation at 1500g at 4 °C for 15 min (Centrifuge Megafuge 1.0R, Heraeus, Boadilla, Spain) and kept at −20 °C until analysis.
# Hydroxytyrosol and its metabolites in plasma were determined by liquid–liquid extraction followed by LC-MS/MS analysis as previously described.[11] Briefly, 200 μL of plasma was mixed with 10 μL of freshly prepared 10% ascorbic acid followed by 10 μL of 0.5% acetic acid and 10 μL of 2-(3-hydroxyphenyl) ethanol (10 μM, I.S.). Then, 2 mL of ethyl acetate was added to the samples that were vigorously mixed in a vortex (5 min), placed into an ultrasonic bath (10 min), and centrifuged at 1500g at 4 °C (15 min) (Centrifuge Megafuge 1.0R). A second extraction of the pellet with 2 mL of ethyl acetate was carried out. Subsequently, the two pooled supernatants were evaporated to dryness, reconstituted with 100 μL of 80% methanol, placed into amber vials, and immediately analyzed by LC-MS/MS.
# The plasmatic concentrations were calculated by the interpolation of the peak area ratio of hydroxytyrosol versus I.S. on a calibration curve. Calibration standards were constructed with blank plasma obtained by cardiac puncture from overnight fasted rats that had never received either table olives or hydroxytyrosol. […] Results were expressed in nmol per liter of plasma (nmol/L). The method was validated following the EMA guidelines[33] at six different concentrations ranging from 0 to 250 nmol/L analyzed on three different days.
# Individual PK of hydroxytyrosol and its metabolites were estimated from the plasma concentrations versus time profiles of each animal, through a noncompartmental analysis (NCA) with Phoenix-64 (Build 8.3.4.295, Certara, Princeton, N.J., USA). All concentrations of each pharmacokinetic profile were considered for NCA because the values obtained were above the LOQ. Peak plasma concentration (Cmax) and time to peak plasma concentration (Tmax) were determined by visual inspection of the pharmacokinetic profiles. The apparent elimination rate constant (λz) was estimated from the terminal slope of the semilogarithmic concentration–time curve. The apparent elimination half-life (t1/2λz) was calculated as t1/2z = 0.693/λz. The area under the plasma concentration–time curve from time zero to the last experimental time (AUCt) with analyte concentrations above the LOQ, was calculated by the linear-log trapezoidal rule. The area from time zero to infinity (AUC0–∞) was calculated by adding to the AUCt value the extrapolated area calculated as the ratio between the predicted concentration (Ct) at the last sampling time with concentrations above the LOQ and λz. The mean residence time (MRT0–∞) was given by the ratio of the area under the first-moment curve (AUMC0–∞) to the area under the zero-moment curve (AUC0–∞). The ratio indicating the relative exposure of each metabolite with respect to hydroxytyrosol (AUC0–∞m/AUC0–∞) was also calculated for all of the metabolites. […]
# [2] = cited from earlier work; for share represented by hydroxytyrosol sulfates: ref Kotronoulas et al. 39
# [3] = 30 olives group (hydroxytyrosol 2.95 mg/kg oral), listed as hydroxytyrosol sulfate M1-b
# [4] = 60 olives group (hydroxytyrosol 5.89 mg/kg oral), listed as hydroxytyrosol sulfate M1-b
# [5] = both doses (30 and 60 olives groups)
# [6] = 30 olives group (hydroxytyrosol 2.95 mg/kg oral), listed as hydroxytyrosol sulfate M1-a
# [7] = 60 olives group (hydroxytyrosol 5.89 mg/kg oral), listed as hydroxytyrosol sulfate M1-a
substance,measurement,setting,value
hydroxytyrosol sulfate [M1-b],AUC0–∞,"[1]; 30 olives group (3.85 g olives/kg, hydroxytyrosol 2.95 mg/kg oral), listed as hydroxytyrosol sulfate M1-b","28084 (20399, 38664)^a min·nmol/L"
same,Cmax/D,[1]; [3],"0.0582 (0.0343, 0.0985)^a"
same,AUC0–∞/D,[1]; [3],"5.33 (3.89, 7.31)^a"
same,AUCt/D,[1]; [3],"5.11 (3.78, 6.90)^a"
same,Cl/F·fm (apparent clearance of metabolite),[1]; [3],"0.68 (0.49, 0.94)^a L/min/kg"
same,MRT0–∞,[1]; [3],"141.4 (118.1, 169.3)^a min"
same,"Vdarea/F·fm (apparent volume of distribution of metabolite, terminal phase)",[1]; [3],"85.0 (57.2, 126)^a L/kg"
same,Vss/F·fm (apparent steady-state volume of distribution of metabolite),[1]; [3],"96.4 (62.6, 148)^a L/kg"
same,t1/2λz (apparent elimination half-life),[1]; [3],"86.4 (67.7, 110)^a min"
same,λz (apparent elimination rate constant),[1]; [3],"0.0080 (0.0063, 0.01024)^a 1/min"
same,Tmax,[1]; [3],"30.50 (30,120)^a min"
same,AUCt,[1]; [3],"26907 (19824, 36520)^a min·nmol/L"
same,Cmax,"[1]; 30 olives group: single oral 3.85 g destoned olives/kg (hydroxytyrosol 2.95 mg/kg), n = 6, listed as hydroxytyrosol sulfate M1-b",306 nM
same,AUC0–∞,"[1]; 60 olives group (7.70 g olives/kg, hydroxytyrosol 5.89 mg/kg oral), listed as hydroxytyrosol sulfate M1-b","80006 (65787, 97299)^b min·nmol/L"
same,Cmax/D,[1]; [4],"0.0491 (0.0333, 0.0726)^a"
same,AUC0–∞/D,[1]; [4],"7.17 (5.62, 9.14)^a"
same,AUCt/D,[1]; [4],"6.05 (4.76, 7.70)^a"
same,Cl/F·fm (apparent clearance of metabolite),[1]; [4],"0.48 (0.39, 0.58)^a L/min/kg"
same,MRT0–∞,[1]; [4],"198.8 (139.0, 284.3)^a min"
same,"Vdarea/F·fm (apparent volume of distribution of metabolite, terminal phase)",[1]; [4],"75.1 (45.7, 123)^a L/kg"
same,Vss/F·fm (apparent steady-state volume of distribution of metabolite),[1]; [4],"83.5 (61.6, 112.9)^a L/kg"
same,t1/2λz (apparent elimination half-life),[1]; [4],"129.3 (74.1, 225.6)^a min"
same,λz (apparent elimination rate constant),[1]; [4],"0.0054 (0.0031, 0.0094)^a 1/min"
same,Tmax,[1]; [4],"38 (30, 100)^a min"
same,AUCt,[1]; [4],"67548 (53591, 85140)^b min·nmol/L"
same,Cmax,"[1]; 60 olives group: single oral 7.70 g destoned olives/kg (hydroxytyrosol 5.89 mg/kg), n = 7, listed as hydroxytyrosol sulfate M1-b",548 nM
same,Vss/F·fm and Vdarea/F·fm,[1]; [5],~90 L/kg
same,half-life (t1/2λz),[1]; [5],approximately 2 h
same,mean residence time (MRT0–∞),[1]; [5],around 3 h
same,percentage of the AUC of each compound divided by the AUC of the sum of all of them,[1],approximately 73%
hydroxytyrosol sulfate [M1-a],AUC0–∞,"[1]; 30 olives group (3.85 g olives/kg, hydroxytyrosol 2.95 mg/kg oral), listed as hydroxytyrosol sulfate M1-a","4765 (3491, 6504)^a min·nmol/L"
same,Cmax/D,[1]; [6],"0.00899 (0.00522, 0.01546)^a"
same,AUC0–∞/D,[1]; [6],"0.90 (0.68, 1.23)^a"
same,AUCt/D,[1]; [6],"0.82 (0.60, 1.11)^a"
same,Cl/F·fm (apparent clearance of metabolite),[1]; [6],"4.02 (2.95, 5.48)^a L/min/kg"
same,MRT0–∞,[1]; [6],"173 (121.9, 245.5)^a min"
same,"Vdarea/F·fm (apparent volume of distribution of metabolite, terminal phase)",[1]; [6],"491 (190, 1264)^a L/kg"
same,Vss/F·fm (apparent steady-state volume of distribution of metabolite),[1]; [6],"616 (339, 1120)^a L/kg"
same,t1/2λz (apparent elimination half-life),[1]; [6],"130.1 (64.5, 262.2)^a min"
same,λz (apparent elimination rate constant),[1]; [6],"0.0053 (0.0026, 0.011)^a 1/min"
same,Tmax,[1]; [6],"45.5 (30, 120)^a min"
same,AUCt,[1]; [6],"4321 (3152, 5924)^a min·nmol/L"
same,Cmax,"[1]; 30 olives group: single oral 3.85 g destoned olives/kg (hydroxytyrosol 2.95 mg/kg), n = 6, listed as hydroxytyrosol sulfate M1-a",47.3 nM
same,AUC0–∞,"[1]; 60 olives group (7.70 g olives/kg, hydroxytyrosol 5.89 mg/kg oral), listed as hydroxytyrosol sulfate M1-a","13133 (9812, 17577)^b min·nmol/L"
same,Cmax/D,[1]; [7],"0.00872 (0.00562, 0.01354)^a"
same,AUC0–∞/D,[1]; [7],"1.18 (0.84, 1.64)^a"
same,AUCt/D,[1]; [7],"1.02 (0.75, 1.38)^a"
same,Cl/F·fm (apparent clearance of metabolite),[1]; [7],"2.91 (2.17, 3,89)^a L/min/kg"
same,MRT0–∞,[1]; [7],"188.3 (143.6, 246,9)^a min"
same,"Vdarea/F·fm (apparent volume of distribution of metabolite, terminal phase)",[1]; [7],"479 (290, 790)^a L/kg"
same,Vss/F·fm (apparent steady-state volume of distribution of metabolite),[1]; [7],"548 (380, 789)^a L/kg"
same,t1/2λz (apparent elimination half-life),[1]; [7],"129.4 (83.0, 201.6)^a min"
same,λz (apparent elimination rate constant),[1]; [7],"0.0054 (0.0034, 0.0083)^a 1/min"
same,Tmax,[1]; [7],"36 (30, 42)^a min"
same,AUCt,[1]; [7],"11376 (8674, 14919)^b min·nmol/L"
same,Cmax,"[1]; 60 olives group: single oral 7.70 g destoned olives/kg (hydroxytyrosol 5.89 mg/kg), n = 7, listed as hydroxytyrosol sulfate M1-a",97.3 nM
same,AUC ratio of metabolite versus parent hydroxytyrosol (AUC0–∞m/AUC0–∞),[1]; [5],around 1.5
same,Vss/F·fm and Vdarea/F·fm,[1]; [5],approximately 500 L/kg
same,half-life (t1/2λz),[1]; [5],approximately 2 h
same,mean residence time (MRT0–∞),[1]; [5],around 3 h
same,percentage of the AUC of each compound divided by the AUC of the sum of all of them,[1],12%
hydroxytyrosol sulfate,share in rat plasma,"[2]; after phenolic extract from olive cake containing 10.35 mg/kg of hydroxytyrosol, ref Serra et al. 23",92%
same,share represented by hydroxytyrosol sulfates,[2]; oral 10 mg/kg of hydroxytyrosol to rats,60%
same,share represented by hydroxytyrosol sulfates,[2]; oral 100 mg/kg of hydroxytyrosol to rats,75%
